According to publication PMC6491995, “Preclinical evaluation of the first intravenous small molecule MDM2 antagonist alone and in combination with temozolomide in neuroblastoma” (International Journal of Cancer, 2019):

Legend:
[1] = tested on: NB1691-Luc orthotopic tumours; assay: IHC analysis of NB1691-Luc orthotopic tumours after one treatment cycle; format: in vivo, mice; settings: 24 h after one treatment cycle, n = 3
Description: Tumours were disaggregated in Phosphosafe buffer (Merck Millipore) using the Medimachine with Medicons inserts (BD Biosciences, Oxford, UK) and Western analysis carried out as previously described.21 Human MIC‐1 assays were performed according to manufacturer's protocols (R&D Systems). IHC was performed using validated protocols and the Ventana Benchmark Ultra automated system (Ventana Medical Systems, Inc, Tucson, AZ, USA) in the Cellular Pathology Department, Royal Victoria Infirmary, Newcastle upon Tyne, UK.
Figure 3 MIC‐1 levels and IHC analysis of Ki67, p53, p21, and cleaved caspase 3 (CC3) in orthotopic tumours in response to one cycle of RO6839921 and temozolomide alone and in combination. […] Statistically significant differences vs. control were determined by unpaired t‐tests. […] Graphical representation of quantification of % positive Ki67, p53, p21, and CC3 staining in (d) NB1691‐Luc and (e) SHSY5Y‐Luc orthotopic tumours using Imagescope software and algorithms (Leica Biosystems, Newcastle upon Tyne, UK) and/or scored for positive immunostaining by a consultant pathologist (KW). n = 3 mice per group. […] Statistically significant differences were determined by one‐way ANOVA with Bonferroni post‐hoc tests and paired testing vs. control. p ≤ 0.05 (*); 0.01 (**); 0.001 (***); 0.0001 (****). […]

[2] = tested on: SHSY5Y-Luc orthotopic tumours; assay: Efficacy study in SHSY5Y-Luc orthotopic tumour bearing mice; format: in vivo; settings: for Reduction in bioluminescence vs. control: RO6839921 eq. 100 mg/kg IV weekly, temozolomide 34 mg/kg PO daily x5; for %ILS (Median): increase in lifespan vs. control based on median survival
Description: (§1) All in vivo experiments were approved by the licencing and ethical committee of the IRCCS San Martino‐IST (Genoa, Italy), the Italian Ministry of Health, Newcastle University and the UK Government Home Office. Orthotopic murine SHSY5Y‐Luc or NB1691‐Luc models were established and monitored using bioluminescence (BLI) IVIS imaging, as previously described.18, 19, 20 RO6839921 (equivalent to 100 mg/kg of active idasanutlin) and temozolomide (34 mg/kg equivalent to 100 mg/m^2 were given by IV tail vein injection and oral gavage, respectively. Tumour bearing mice were randomised into n = 3/group and n = 8/group for pharmacokinetic (PK)/pharmacodynamic (PD) studies and efficacy studies, respectively, and samples taken at the indicated time points (Supporting Information Fig. S1). To minimise esterase activity, 0.2% dichlorvos (Sigma‐Aldrich) was added to blood samples. […] Animals were monitored 2–3 times weekly and euthanized humanely just before showing signs of illness/suffering such as abdominal dilatation, paraplegia, dehydration, or severe weight loss. Percentage increase in lifespan (%ILS) was calculated based on both median and mean survival to humane endpoint, as previously described.5 For more detailed procedures see Supporting Information.
(§2) The efficacy of RO6839921 alone and in combination with temozolomide was assessed in SHSY5Y‐Luc and NB1691‐Luc orthotopic tumour bearing mice. The intermittent schedule used is equivalent to one cycle of treatment over a 3 week period (Fig. S1, Supporting Information). Mice were randomised into control, RO6839921 (once per week for 3 weeks), temozolomide (daily x5/3 weeks; consistent with the currently used clinical dosing schedule in the BEACON Trial (NCT02308527)), or RO6839921 and temozolomide treatment groups (n = 8/group; Fig. S1, Supporting Information).
(§3) Supplementary Information
(§4) Detailed methods of orthotopic in vivo experiments
(§5) Five week old female athymic Nude-Foxn1nu mice (Envigo, Bresso, Italy) were anesthetized, subjected to a laparotomy and orthotopically injected with 1×10^6 SHSY5Y-Luc or NB1691-Luc neuroblastoma cells into the capsule of the left adrenal gland, as previously described (1-3). […]
(§6) using BLI IVIS imaging for tumour development (~2-3 weeks) prior to commencement of treatment. […]
(§7) 10min and stored at -80°C. For efficacy studies, SHSY5Y-Luc or NB1691-Luc tumour bearing mice were randomized […]
(§8) temozolomide (34mg/kg, daily x5 only by oral gavage) or RO6839921 and temozolomide treatment groups with 8 mice per group (Figure S1), and monitored by IVIS imaging for tumour growth. Baseline bioluminescence were measured prior to initiation of treatment on Day 1, and then during treatment on Days 8 (BLI1) and 15 (BLI2) (Figure S1). Twenty-four hours after the end of treatment, 3 mice per group were sacrificed for PK and PD analyses, and the remaining 5 mice per group were monitored for survival to humane endpoint (Figure S1). Animals were monitored 2-3 times weekly

[3] = tested on: NB1691-Luc orthotopic tumours; assay: Efficacy study in NB1691-Luc orthotopic tumour bearing mice; format: in vivo; settings: for Reduction in bioluminescence vs. control: RO6839921 eq. 100 mg/kg IV weekly, temozolomide 34 mg/kg PO daily x5; for %ILS (Median): increase in lifespan vs. control based on median survival
Description: as §1, §2, §3, §4, §5, §6, §7, §8

NB1691 cells = tested on: NB1691 cells; set-up: method as in PMID 25844600; settings: 72 h, read-out: 72 h GI50 concentration; cited from earlier work
[4] = set-up: method as in PMID 16047361, PMID 9744506, PMID 9738573, PMID 17114659; settings: clinical data in children; cited from earlier work
[5] = PK of orally formulated idasanutlin in subcutaneous NGP neuroblastoma xenograft model; format: in vivo; settings: single oral dose equivalent to 100 mg/kg active idasanutlin, subcutaneous NGP xenograft mice, preliminary studies
Description: We previously conducted similar PK/PD analyses of orally formulated idasanutlin in preliminary studies of a subcutaneous NGP neuroblastoma xenograft model after a single oral dose equivalent to 100 mg/kg of active idasanutlin (Fig. S8, Supporting Information).
Figure S8. PK and PD analysis of orally formulated idasanutlin in a TP53 wt subcutaneous xenograft model of neuroblastoma. Female CD1 nude mice were implanted subcutaneously with […] TP53 wt, MDM2 and MYCN amplified NGP neuroblastoma cells. A) PK analysis of idasanutlin levels using LC-MS in plasma samples harvested at the indicated time points from tumour bearing mice treated with a single dose equivalent to 100mg/kg of active idasanutlin by oral gavage. PD profiling for B) induction of the p53 pathway using Western analysis of p53, p21, and MDM2 levels in tumours, and C) MIC-1 levels in plasma harvested at the indicated time points from subcutaneous NGP tumour bearing mice treated with a single dose of idasanutlin by oral gavage. n=3 mice per time point. CTR, control.
(1 picture or pasted object on this page, not shown here)

[6] = after 1 week of treatment (Day 8/BLI1)
[7] = after 2 weeks of treatment (Day 15/BLI2)
[8] = increase in lifespan vs. control based on mean survival
[9] = survival to humane endpoint, n = 5/group, one treatment cycle

Compound	Ki67 positive cells vs. control (IHC) [1]	Reduction in bioluminescence vs. control [2, 6] [%]	Reduction in bioluminescence vs. control [2, 7] [%]	%ILS (Mean) [2, 8] [%]	%ILS (Median) [2] [%]	%ILS (Median) ([2]; listed as Temozolomide) [%]	Mean Survival [2, 9] [days]	Median Survival [2, 9] [days]	Reduction in bioluminescence vs. control [3, 6] [%]	Reduction in bioluminescence vs. control [3, 7] [%]	%ILS (Mean) [3, 8] [%]	%ILS (Median) [3] [%]	%ILS (Median) ([3]; listed as Temozolomide) [%]	Mean Survival [3, 9] [days]	Median Survival [3, 9] [days]	GI50 (NB1691 cells) [µM]	Main toxicities in children [4]	Plasma concentration of active idasanutlin [5] [µg/mL]
Cn1nnc2c(C(N)=O)ncn2c1=O [temozolomide]	did not reduce	36	39	11	14	14	49	49	35	24	16	6	6	41	37	868	thrombocytopenia and neutropenia	
COc1cc(C(=O)O)ccc1NC(=O)[C@@H]1N[C@@H](CC(C)(C)C)[C@](C#N)(c2ccc(Cl)cc2F)[C@H]1c1cccc(Cl)c1F [idasanutlin, Idasanutlin]																0.041		~5
